Laboratory results reported in patent US20020173489A1, “COMPOSITIONS CONTAINING A MIXTURE OF PHOSPHOROUS COMPOUNDS AND ALKYLGLYCEROLS” (priority 1987, published 2002).
Entries after “also recorded” stand apart in the source; their conditions may differ.

Assays:
[1] = system: chemically-induced mammary carcinomas; assay: chemically-induced mammary carcinomas in rats, oral potable solution; format: in vivo, rat; conditions: daily doses of 20, 40 and 60 mg/kg body weight
From the text: For oral administration, the compounds of formula I are advantageously used in the form of a potable solution. Suitable potable carriers for this purpose include milks, cocoa, fruit juices and drinking water. The preparation of such potable solutions can involve, for example, diluting a concentrated alcoholic solution of a compound of the formula I or I′ with water or with another one of the previously mentioned carriers. […] The tumor model used for these experiments was a so-called hard model. This means that the findings obtained with this model can also be applied to humans.

[2] = system: wart-shaped excrescence; assay: topical treatment of a wart-shaped excrescence (Example 9); format: in vivo, human
Description: A person presented a wart-shaped excrescence of increasing size (diameter: about 5 mm; height: about 3 mm), formed at the site of a stab wound on their right middle finger after an initial inflammatory reaction. The excrescence grew over a period of about 1.5 years. There was heavy vascularization at the site, as well as superficial furrowing. The position of the wart (side facing the ring finger), made it quite susceptible to injury.
The patient was treated by topically administering a composition containing 40 mg/ml hexadecylphosphocholine, 317 mg/ml of 3-propoxypropyleneglycol, 158 mg/ml of hexyloxypropyleneglycol, and 158 mg/ml of nonyloxypropyleneglycol, in solution, and then a solution containing 60 mg/ml of the hexadecy/phosphocholine, and the other components above, in the same amounts. The solutions were administered topically, 2-3 times per day.
The excrescence rapidly developed a horny surface, and regressed. Cornified residues were removable without bleeding. The treatment was terminated […] the surrounding skin level was reached. This took about 6 weeks. When the patient was examined about 8 weeks later, the condition was stable. […] It is believed that this was the result of regeneration of the epidermis in the excrescence region.

| Structure (SMILES) | remission of chemically-induced mammary carcinomas [1] | condition at follow-up ([2]; examined about 8 weeks after end of treatment) | effect on the excrescence ([2]; person, topical 2-3 times per day, 40 then 60 mg/ml in propoxy-/hexyloxy-/nonyloxypropyleneglycol solution) | damage to surrounding healthy skin regions ([2]; topical) | time of treatment until termination (before surrounding skin level was reached) ([2]; topical 2-3 times per day) | skin reactions ([2]; topical, reddening disappeared after about 2 weeks) |
| --- | --- | --- | --- | --- | --- | --- |
| CCCCCCCC/C=C\CCCCCCCCOP(=O)([O-])OCC[N+](C)(C)C [oleylphosphocholine] | complete remission | – | – | – | – | – |
| CCCCCCCCCCCCCCCCOP(=O)([O-])OCC[N+](C)(C)C [hexadecylphosphocholine] | – | stable | regressed | no apparent damage | about 6 weeks | slight reddening of the skin; also recorded: slight peeling of healthy skin |
